US20090093485A1, “Novel Sulphonamide Derivatives as Glucocorticoid Receptor Modulators for the Treatment of Inflammatory Diseases” (ASTRAZENECA AB, priority 2004, published 2009)

What follows are compounds tested against T1, recombinant human GR (Homo sapiens, UniProt P04150) (assay: Human Glucocorticoid Receptor (GR) Assay (fluorescence polarization, Panvera/Invitrogen kit)). Conditions: GS Red tracer, incubated at room temperature for 2 hours, 100% control 10 μM Dexamethasone, read-out: GRhuFL_FP_v2 (GR-binders) IC50.
T1 construct: purchased Panvera/Invitrogen P2812 (kit P2893)
T1 sequence (P04150 1-777): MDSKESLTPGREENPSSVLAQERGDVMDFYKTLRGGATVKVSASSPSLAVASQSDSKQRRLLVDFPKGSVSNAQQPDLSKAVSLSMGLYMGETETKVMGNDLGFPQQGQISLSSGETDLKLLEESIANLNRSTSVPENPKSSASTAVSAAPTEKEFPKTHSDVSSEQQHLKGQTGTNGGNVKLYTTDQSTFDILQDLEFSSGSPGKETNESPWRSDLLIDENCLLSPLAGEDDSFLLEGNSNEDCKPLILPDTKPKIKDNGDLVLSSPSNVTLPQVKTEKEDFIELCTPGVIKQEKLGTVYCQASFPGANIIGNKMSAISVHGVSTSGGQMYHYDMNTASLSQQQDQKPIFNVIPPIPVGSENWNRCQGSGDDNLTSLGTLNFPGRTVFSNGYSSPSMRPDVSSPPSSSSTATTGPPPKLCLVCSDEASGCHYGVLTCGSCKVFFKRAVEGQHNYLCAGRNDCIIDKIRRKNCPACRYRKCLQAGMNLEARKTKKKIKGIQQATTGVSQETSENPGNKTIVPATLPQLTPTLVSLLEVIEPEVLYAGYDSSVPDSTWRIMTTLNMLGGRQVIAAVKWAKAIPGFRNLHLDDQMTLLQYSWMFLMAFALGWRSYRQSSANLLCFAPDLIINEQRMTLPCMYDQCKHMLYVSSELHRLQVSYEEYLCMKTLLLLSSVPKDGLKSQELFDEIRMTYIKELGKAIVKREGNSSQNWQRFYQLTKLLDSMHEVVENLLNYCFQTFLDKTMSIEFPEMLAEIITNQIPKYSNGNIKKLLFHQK
Type: binding
Protocol: Human Glucocorticoid Receptor (GR) Assay
The assay is based on a commercial kit from Panvera/Invitrogen (Part number P2893). The assay technology is fluorescence polarization. The kit utilises recombinant human GR (Panvera, Part number P2812), a Fluoromone™ labelled tracer (GS Red, Panvera, Part number P2894) and a Stabilizing Peptide 10X (Panvera, Part number P2815). The GR and Stabilizing Peptide reagents are stored at −70° C. while the GS Red is stored at −20° C. Also included in the kit are 1M DTT (Panvera, Part number P2325, stored at −20° C.) and GR Screening buffer 10X (Panvera, Part number P2814, stored at −70° C. initially but once thawed stored at room temperature). Avoid repeated freeze/thaws for all reagents. The GR Screening buffer 10X comprises 100 mM potassium phosphate, 200 mM sodium molybdate, 1 mM EDTA and 20% DMSO.
Test compounds (1 μL) and controls (1 μL) in 100% DMSO were added to black polystyrene 384-well plates (Greiner low volume black flat-bottom, part number 784076). […] was 100% DMSO and 100% control was 10 μM Dexamethasone. Background solution (8 μL; assay buffer 10X, Stabilizing Peptide, DTT and ice cold MQ water) was added to the background wells. GS Red solution (7 μL; assay buffer 10X, Stabilizing Peptide, DTT, GS Red and ice cold water) was added to all wells except background wells. GR solution (7 μL; assay buffer 10X, Stabilizing Peptide, DTT, GR and ice cold water) was added to all wells. The plate was sealed and incubated in a dark at room temperature for 2 hours. The plate was read in an Analyst plate reader (LJL Biosystems/Molecular Devices Corporation) or other similar plate reader capable of recording fluorescence polarization (excitation wavelength 530 nm, emission wavelength […] and a dichroic mirror at 561 nm). The IC50 values were calculated using XLfit model 205.
Compound `O=[N+]([O-])c1cc(Cl)ccc1NCCCNS(=O)(=O)c1ccc2ccccc2c1` [Example 5] has an IC50 of 640 nM. Compound `CCOc1ccc(S(=O)(=O)NCCc2ccc(S(N)(=O)=O)cc2)c2cccnc12` [Example 6] has an IC50 of 700 nM. For `Cc1csc(NC(=O)CN(CC(C)C)S(=O)(=O)c2cccc3ccccc23)n1` [Example 7], the IC50 was 700 nM. Work on `Cc1cc(C)c(S(=O)(=O)NCCc2c(C)[nH]c3ccc(C)cc23)c(C)c1` [Example 8] yielded an IC50 of 1200 nM. `CCCN(c1nc(C)c(Cl)c(OC)n1)S(=O)(=O)c1ccc(C)cc1` [Example 9] was tested, and the IC50 was 1600 nM. `CC(C)c1cc(C(C)C)c(S(=O)(=O)NCc2ccncc2)c(C(C)C)c1` [Example 10] was tested, and the IC50 was 600 nM. Work on `COC(=O)c1c(C)oc2ccc(N(C(=O)c3ccncc3)S(=O)(=O)c3ccc(C)cc3C)cc12` [Example 11] yielded an IC50 of 2200 nM. Work on `Cc1cc(NC(=O)CN(C2CCCCC2)S(=O)(=O)c2cccc3ccccc23)no1` [Example 12] yielded an IC50 of 6000 nM. Work on `Cc1cc(NC(=O)CN(CC2CCCCC2)S(=O)(=O)c2cccc3ccccc23)no1` [Example 13] yielded an IC50 of 2200 nM. `C=CCN(c1nc(C)c(Cl)c(OC)n1)S(=O)(=O)c1ccc(C)cc1` [Example 14] showed an IC50 of 1700 nM. In the case of `CCNc1nc(NC(C)C)nc(OCCNS(=O)(=O)c2cc(C)ccc2C)n1` [Example 15], the IC50 is reported as 6300 nM. Compound `CCCCOc1ccc(NS(=O)(=O)c2cccc3c(N(C)C)cccc23)cn1` [Example 16] has an IC50 of 4400 nM. `Cc1cc(Br)ccc1S(=O)(=O)NC(C)CCc1ccccc1` (stereo not drawn) [Example 19, 4-Bromo-2-methyl-N-(1-methyl-3-phenyl-propyl)-benzenesulfonamide] was tested, and the IC50 was 540 nM. Compound `Cc1cc(C)c(S(=O)(=O)NC(C)CCc2ccccc2)c(C)c1` (stereo not drawn) [Example 32, 2,4,6-Trimethyl-N-(1-methyl-3-phenyl-propyl)-benzenesulfonamide] has an IC50 of 90 nM. Compound `Cc1cccc(C)c1OCC(C)NS(=O)(=O)c1cccc([N+](=O)[O-])c1` (stereo not drawn) [Example 34, N-[2-(2,6-Dimethyl-phenoxy)-1-methyl-ethyl]-3-nitro-benzenesulfonamide] has an IC50 of 3000 nM. For `Cc1cc(C)c(S(=O)(=O)N[C@@H](C)COc2cccc3cnccc23)c(C)c1` [Example 77, N-[(1S)-2-(5-Isoquinolinyloxy)-1-methylethyl]-2,4,6-trimethylbenzenesulfonamide], the IC50 was 17 nM. `Cc1cc(C)c(S(=O)(=O)N[C@@H](C)COc2cccc3[nH]ccc23)c(C)c1` [Example 78, N-[(1S)-2-(1H-Indol-4-yloxy)-1-methylethyl]-2,4,6-trimethylbenzenesulfonamide] showed an IC50 of 23 nM. `Cc1cc(C)c(S(=O)(=O)N[C@@H](C)COc2cccc3ncccc23)c(C)c1` [Example 79, 2,4,6-Trimethyl-N-[(1S)-1-methyl-2-(5-quinolinyloxy)ethyl]benzenesulfonamide] showed an IC50 of 140 nM. `Cc1cc(C)c(S(=O)(=O)N[C@@H](C)COc2ccc3c(c2)OCO3)c(C)c1` [Example 80, N-[(1S)-2-(1,3-Benzodioxol-5-yloxy)-1-methylethyl]-2,4,6-trimethylbenzenesulfonamide] showed an IC50 of 230 nM. With `Cc1cc(C)c(S(=O)(=O)N[C@@H](C)COc2ccnc3ccccc23)c(C)c1` [Example 81, 2,4,6-Trimethyl-N-[(1S)-1-methyl-2-(4-quinolinyloxy)ethyl]benzenesulfonamide] the IC50 was 370 nM. Work on `Cc1cc(C)c(S(=O)(=O)N[C@@H](C)COc2ncnc3ccccc23)c(C)c1` [Example 82, 2,4,6-Trimethyl-N-[(1S)-1-methyl-2-(4-quinazolinyloxy)ethyl]benzenesulfonamide] yielded an IC50 of 3400 nM. `Cc1cc(C)c(S(=O)(=O)N[C@@H](C)COc2cccc3cccnc23)c(C)c1` [Example 83, 2,4,6-Trimethyl-N-[(1S)-1-methyl-2-(8-quinolinyloxy)ethyl]benzenesulfonamide] showed an IC50 of 8900 nM. `Cc1cc(C)c(S(=O)(=O)N[C@@H](C)CNc2ccc(C)c3ncccc23)c(C)c1` [Example 123, 2,4,6-Trimethyl-N-{(1S)-1-methyl-2-[(8-methylquinolin-5-yl)amino]ethyl}-benzenesulfonamide] showed an IC50 of 18 nM. With `Cc1cc(C)c(S(=O)(=O)N[C@@H](C)CNc2c(C)ccc3ncccc23)c(C)c1` [Example 124, 2,4,6-Trimethyl-N-{(1S)-1-methyl-2-[(6-methylquinolin-5-yl)amino]ethyl}-benzenesulfonamide] the IC50 was 20 nM. With `Cc1cc(C)c(S(=O)(=O)N[C@@H](C)CNc2cccc3[nH]ncc23)c(C)c1` [Example 125, N-[(1S)-2-(1H-Indazol-4-ylamino)-1-methylethyl]-2,4,6-trimethylbenzenesulfonamide] the IC50 was 42 nM. `Cc1cc(C)c(S(=O)(=O)N[C@@H](C)CNc2cccc3ncccc23)c(C)c1` [Example 126, 2,4,6-Trimethyl-N-[(1S)-1-methyl-2-(quinolin-5-Ylamino)ethyl]benzenesulfonamide] was tested, and the IC50 was 75 nM. In the case of `Cc1nn(-c2ccccc2)c(C)c1S(=O)(=O)N[C@@H](C)COc1cccc2cnccc12` [Example 160, N-[(1S)-2-(Isoquinolin-5-yloxy)-1-methylethyl]-3,5-dimethyl-1-phenyl-1-pyrazole-4-sulfonamide], the IC50 is reported as 96 nM.
